# Measured values published in ChEMBL document CHEMBL1141521, “Individual stereoisomers of phosphinic dipeptide inhibitor of leucine aminopeptidase” (Bioorg Med Chem Lett, 2008).
# Target: T1, Leucine aminopeptidase (Plasmodium falciparum 3D7, UniProt Q8IL11)
# T1 sequence (Q8IL11 whole entry): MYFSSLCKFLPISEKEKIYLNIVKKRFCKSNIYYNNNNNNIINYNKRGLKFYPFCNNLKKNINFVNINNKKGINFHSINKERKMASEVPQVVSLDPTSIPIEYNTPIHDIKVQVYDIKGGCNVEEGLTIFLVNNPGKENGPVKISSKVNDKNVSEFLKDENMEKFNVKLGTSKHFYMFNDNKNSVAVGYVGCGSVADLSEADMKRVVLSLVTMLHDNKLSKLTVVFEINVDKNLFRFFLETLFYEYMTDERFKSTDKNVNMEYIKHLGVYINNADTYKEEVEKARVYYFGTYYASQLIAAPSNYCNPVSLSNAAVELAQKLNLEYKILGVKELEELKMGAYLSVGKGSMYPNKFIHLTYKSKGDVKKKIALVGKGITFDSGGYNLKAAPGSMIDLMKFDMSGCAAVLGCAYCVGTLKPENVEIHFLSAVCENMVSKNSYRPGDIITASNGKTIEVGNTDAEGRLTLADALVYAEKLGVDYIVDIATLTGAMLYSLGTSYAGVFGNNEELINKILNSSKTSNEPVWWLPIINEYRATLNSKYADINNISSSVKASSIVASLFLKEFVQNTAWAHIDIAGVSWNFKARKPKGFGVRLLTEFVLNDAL
# Assay: Inhibition of Plasmodium falciparum recombinant leucine aminopeptidase
smiles,measurement,value
NC(CCc1ccccc1)P(=O)(O)CC(Cc1ccccc1)C(=O)O (stereo unspecified),Ki,13.2 nM
